We go through seven compounds from patent EP0694535A1, “Non-peptidyl tachykinin receptor antagonists” (ELI LILLY AND COMPANY, priority 1994, dated 1996).

In general, IC50 refers to the concentration that gives 50% inhibition. High values mean weaker potency in that assay, low ones greater potency in that assay. By inhibition is commonly meant the relative decrease from the control value, in per cent.

Assay [1] addresses T1, NK-1 receptor (Homo sapiens, UniProt P25103).
T1 construct: an aliquot of IM9 cells; endogenous in cells; host or cells: IM9 cells (whole cells)
As to the kind of experiment: NK-1 Receptor Binding Assay (competition with labeled substance P on IM9 cells). As to conditions: for IC50: concentration which inhibits fifty percent of the binding of substance P, 20 pM labeled substance P, 45 minutes at 4°C; for inhibition at 10 µM: inhibition of substance P binding to the NK-1 receptor, read-out: Percent Inhibition. The essentials:
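IM9 cells (1 x 10⁶/tube in serum-supplemented RPMI) were incubated for 45 min at 4°C with 20 pM […] substance P plus rising competitor concentrations. Binding was stopped by filtration on PEI-soaked glass fiber filters. Nonspecific binding was defined with 20 nM unlabeled ligand.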

Assay [2] concerns the target T2, human NK-2 receptor (Homo sapiens, UniProt P21452).
T2 construct: expressed in transfected cells; host or cells: CHO-hNK-2R cells (CHO-derived), membrane preparation
T2 sequence (P21452 1-398): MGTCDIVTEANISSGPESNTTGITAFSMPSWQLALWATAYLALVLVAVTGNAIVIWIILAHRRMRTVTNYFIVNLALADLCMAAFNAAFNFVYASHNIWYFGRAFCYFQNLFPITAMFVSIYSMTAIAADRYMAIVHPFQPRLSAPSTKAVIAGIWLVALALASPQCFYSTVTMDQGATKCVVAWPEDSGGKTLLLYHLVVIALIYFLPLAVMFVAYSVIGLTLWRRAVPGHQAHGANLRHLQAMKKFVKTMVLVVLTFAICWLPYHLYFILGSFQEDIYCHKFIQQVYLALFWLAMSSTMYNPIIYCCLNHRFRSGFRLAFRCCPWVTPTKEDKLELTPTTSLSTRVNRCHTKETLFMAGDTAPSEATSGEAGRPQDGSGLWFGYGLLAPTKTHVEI
Put plainly: NK-2 Receptor Binding Assay (CHO-hNK-2R membranes, iodohistidyl-neurokinin A). As to conditions: inhibition of neurokinin A binding at ten micromolar, read-out: Percent Inhibition @ 10 μM. The protocol:
The CHO-hNK-2R cells, a CHO-derived cell line transformed with the human NK-2 receptor, expressing about 400,000 such receptors per cell, were grown in 75 cm flasks or roller bottles in minimal essential medium (alpha modification) with 10% fetal bovine serum. The gene sequence of the human NK-2 receptor is given in N.P. Gerard, et al., Journal of Biological Chemistry, 265:20455-20462 (1990).
For preparation of membranes, 30 confluent roller bottle cultures were dissociated by washing each roller bottle with 10 ml of Dulbecco's phosphate buffered saline (PBS) without calcium and magnesium, followed by addition of 10 ml of enzyme-free cell dissociation solution (PBS-based, from Specialty Media, Inc.). After an additional 15 minutes, the dissociated cells were pooled and centrifuged at 1,000 RPM for 10 minutes in a clinical centrifuge. Membranes were prepared by homogenization of the cell pellets in 300 ml 50 mM Tris buffer, pH 7.4 with a Tekmar® homogenizer for 10-15 seconds, followed by centrifugation at 12,000 RPM (20,000 x g) for 30 minutes using a Beckman JA-14® rotor. The pellets were washed once using the above procedure. and the final pellets were resuspended in 100-120 ml 50 mM Tris buffer, pH 7.4, and 4 ml aliquots stored frozen at -70 °C. The protein concentration of this preparation was 2 mg/ml.
For the receptor binding assay, one 4-ml aliquot of the CHO-hNK-2R membrane preparation was suspended in 40 ml of assay buffer containing 50 mM Tris, pH 7.4, 3 mM manganese chloride, 0.02% bovine serum albumin (BSA) and 4 µg/ml chymostatin. A 200 µl volume of the homogenate (40 µg protein) was used per sample. The radioactive ligand was [[…]]iodohistidyl-neurokinin A (New England Nuclear, NEX-252), 2200 Ci/mmol. The ligand was prepared in assay buffer at 20 nCi per 100 µl; the final concentration in the assay was 20 pM. Non-specific binding was determined using 1 µM eledoisin. Ten concentrations of eledoisin from 0.1 to 1000 nM were used for a standard concentration-response curve.
All samples and standards were added to the incubation in 10 µl dimethylsulfoxide (DMSO) for screening (single dose) or in 5 µl DMSO for IC₅₀ determinations. The order of additions for incubation was 190 or 195 µl assay buffer, 200 µl homogenate, 10 or 5 µl sample in DMSO, 100 µl radioactive ligand. The samples were incubated 1 hr at room temperature and then filtered on a cell harvester through filters which had been presoaked for two hours in 50 mM Tris buffer, pH 7.7, containing 0.5% BSA. The filter was washed 3 times with approximately 3 ml of cold 50 mM Tris buffer, pH 7.7. The filter circles were then punched into 12 x 75 mm polystyrene tubes and counted in a gamma counter.
Table II, infra, provides a representative sample of the effectiveness as NK-2 receptor antagonists of many of the compounds of Formula I. The first column provides the Example number of the compound tested. The second column provides either the percent inhibition of neurokinin A binding when the compound is present in a ten micromolar concentration or the amount of compound (in micromolar amounts) necessary to inhibit fifty percent of the binding of neurokinin A. Those values which represent IC₅₀ values are designated by parentheses.

T1 sequence (P25103 whole entry): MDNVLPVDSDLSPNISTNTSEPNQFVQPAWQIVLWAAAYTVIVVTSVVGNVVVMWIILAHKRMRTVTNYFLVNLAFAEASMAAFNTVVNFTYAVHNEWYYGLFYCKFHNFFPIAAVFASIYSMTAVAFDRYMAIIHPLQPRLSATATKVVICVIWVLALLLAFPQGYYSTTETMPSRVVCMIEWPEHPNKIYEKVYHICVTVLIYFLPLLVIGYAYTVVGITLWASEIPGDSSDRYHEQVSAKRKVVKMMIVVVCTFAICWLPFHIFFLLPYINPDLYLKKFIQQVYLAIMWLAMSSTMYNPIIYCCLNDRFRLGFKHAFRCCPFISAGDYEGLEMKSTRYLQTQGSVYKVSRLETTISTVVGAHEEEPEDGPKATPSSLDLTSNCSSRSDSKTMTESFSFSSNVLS

Turning to `COc1cc(-c2nc3ccccc3n2Cc2ccccc2I)cc(OC)c1OC` [Example 50, 1-(2-iodobenzyl)-2-(3,4,5-trimethoxyphenyl)-benzimidazole], the IC50 in assay [1] was determined as 823 nM. In addition, the inhibition at 10 µM in assay [2] came to 87.4%.
With `COc1cc(-c2nc3ccccc3n2Cc2ccc(Cl)c(Cl)c2)cc(OC)c1OC` [Example 53, 1-(3,4-dichlorobenzyl)-2-(3,4,5-trimethoxyphenyl)-benzimidazole], the inhibition at 10 µM in assay [1] was found to be 45%; in assay [2], 33.4%.
For `COc1cc(-c2nc3ccccc3n2Cc2c(Cl)cccc2Cl)cc(OC)c1OC` [Example 52, 1-(2,6-dichlorobenzyl)-2-(3,4,5-trimethoxyphenyl)-benzimidazole] the same measures were 20% and -7.1%.
In the case of `COc1cc(-c2nc3ccccc3n2Cc2ccccc2Cl)cc(OC)c1OC` [Example 41, 1-(2-chlorobenzyl)-2-(3,4,5-trimethoxyphenyl)-benzimidazole], in assay [1], the IC50 turned out to be 815 nM. For the same compound, the inhibition at 10 µM in assay [2] is 73.7%.
For `COc1cc(-c2nc3ccc(OCCN4CCCCC4)cc3n2Cc2ccccc2)cc(OC)c1OC` [Example 71, 1-benzyl-2-(3,4,5-trimethoxyphenyl)-6-[2-(1-piperidinyl)ethoxy]benzimidazole] the same measures were 60 nM and 70.1%.
For the compound `COc1cc(-c2nc3ccccc3n2Cc2cccc(Cl)c2)cc(OC)c1OC` [Example 40, 1-(3-chlorobenzyl)-2-(3,4,5-trimethoxyphenyl)-benzimidazole], the results for the inhibition at 10 µM in assay [1] and in assay [2] were 77% and 55%, respectively.
The matching figures for `Cc1cccc(-c2nc3ccccc3n2Cc2ccccc2Br)c1` [Example 60, 1-(2-Bromobenzyl)-2-(3-methylphenyl)benzimidazole]: 72% and 62.6%.
